Data on 4 compounds can be found in patent US8765683B2, “T-140 peptide analogs having CXCR4 super-agonist activity for cancer therapy” (Biokine Therapeutics Ltd., priority 2006, dated 2014).

Assay [1] deals with PC3 cells. The assay is described as follows: MIP3α secretion by PC3 cells (ELISA). It is filed as cell-based. As for the experimental part: (§1) In this example, regulation of the chemokine MIP3α (macrophage inflammatory protein 3α) was examined. […] In FIG. 1B, PC3 (left panel) and PC3-CXCR4.5 (right panel) cells were stimulated with the indicated concentrations of CXCL12 for 48 hours and MIP3α secretion was assessed by ELISA. The results represent the average of triplicates±STDEV.
(§2) The effects of the CXCR4 antagonist AMD3100 and of 4F-benzoyl-TN14003 (4FB-TN14003), hitherto known as a CXCR4 antagonist, on MIP3α secretion were further tested. […] In FIG. 1C, CXCR4 signaling in PC3 (left panel) and PC3-CXCR4.5 (right panel) cells was inhibited with anti-CXCL12 antibodies (αCXCL12) and Pertussis toxin (PTX) treatments alone or in combination with CXCL12, as indicated. Secretion of MIP3α was assessed by ELISA. The results represent the average of triplicates±STDEV.

In assay [2] the test system is PC3-CXCR4.5 cells. The experiment in a line: MIP3α secretion by PC3-CXCR4.5 cells (ELISA). It is filed as cell-based. As for the experimental part: as §1, §2
The test system of a further assay is K562L cells. The experiment in a line: K562L (luciferase) CML model, CCCD camera. It is filed as in vivo, NOD/SCID mice. The procedure:
In order to monitor the progression and localization of leukemic cells in vivo, the human CML tumor cell lines K562 (K562L) was stably transduced with a retrovirus carrying the luciferase gene. This cell line was injected IP into NOD/SCID mice (2.5×10^5, 5×10^5, 10^6, 2×10^6 per mouse; FIGS. 18 A-D, respectively) that were pretreated with a sub-lethal dose of radiation in order to diminish any natural killer cell activity and enhance acceptance of the tumor cells. Twenty-four hr after injection of the cells, the light generated internally by the luciferase expressed in the tumor cells and then transmitted through the animal's tissues was monitored externally using a cooled charge-coupled device camera (CCCD). The substrate luciferin was provided exogenously via IP injection. […] Quantitation was achieved by integrating the signal intensity using the Metaview software.
Two therapeutic approaches were studied using this model. […] In addition, the effect of 4F-benzoyl-TN14003 on the growth of cells in vivo was investigated.
Further, the effect of 4F-benzoyl-TN14003 on K562L tumor development was studied. 4F-benzoyl-TN14003 was injected i.p into NOD/SCID mice in the amount of 4 mg/Kg per mouse/per injection. The first injection of 4F-benzoyl-TN14003 was given immediately after the injection of K562-luc cells in an opposite route of injection on the peritoneum. Further injections of 4F-benzoyl-TN14003 were given every three days. Mice were monitored under the CCCD camera, 24 hr after each injection at serial time points, every three days.
4F-benzoyl-TN14003 was injected i.p into NOD/SCID mice in the amount of 2 mg/Kg whereas AMD-3100 was injected 4 mg/Kg per mouse/per injection. The first injection was given 2 days after the injection of K562-luc cells. Further injections were given on days 5, 7 and 11. Mice (n=3) were monitored under the CCCD camera on day 17 after injection of cells.

A further assay relates to U-87. The experiment in a line: Proliferation of U-87 glioblastoma cells. It is filed as cell-based.
The test system of assay [3] is human primary keratinocytes. The assay is described as follows: Proliferation and survival of keratinocytes. Conditions: AMD-3100 20 μM; 4F-benzoyl-TN14003 4-20 μM. It is filed as cell-based. As for the experimental part:
(§3) The effect of CXCR4 antagonists on the survival of freshly isolated normal CD4^+ T cells, CD34^+ stem cells and keratinocytes was examined. The proliferation and survival of keratinocytes was not inhibited by CXCR4 antagonists AMD-3100 (20 μM) and 4F-benzoyl-TN14003 (4-20 μM) or the natural ligand CXCL12 (FIG. 2C). The proliferation and survival of CD4^+ T cells was not inhibited by CXCR4 antagonists AMD-3100 (20 μM).

For a further assay, the system named is SKBR3. The assay is described as follows: Proliferation of SKBR3 breast carcinoma cells. It is filed as cell-based.
For assay [4], the system named is PC3 cells. The assay is described as follows: Proliferation of PC3 prostate tumor cells. The class given is cell-based. As for the experimental part: (§4) Next, the effect of the CXCR4 modulators on PC3 and PC3-CXCR4.5 prostate tumor cells was tested. […] The proliferation induced by 4F-benzoyl-TN14003 was dose-dependent (FIG. 3B).
A further assay has as its system HL-60 cells. The experiment in a line: Proliferation and apoptosis (Annexin V) of HL-60 cells. It is filed as cell-based, human. Conditions: AMD-3100 50 μM pretreatment.
The test system of assay [5] is PC3-CXCR4.5 cells. The experiment in a line: Proliferation of PC3-CXCR4.5 prostate tumor cells. The class given is cell-based. The procedure: as §4
For a further assay, the system named is 22Rv1. The assay is described as follows: Proliferation of 22Rv1 prostate carcinoma cells. It is filed as cell-based.
For a further assay, the system named is human CD4+ T cells. The assay is described as follows: Proliferation and survival of CD4+ T cells. It is filed as cell-based. The note with it: AMD-3100 20 μM; 4F-benzoyl-TN14003 4-20 μM. The procedure:
as §3

The subject of assay [6] is human CD34+ hematopoietic stem cells. The note with it: AMD-3100 20 μM.
Another assay deals with NB4 cells. The experiment in a line: Proliferation of NB4 AML cells. The class given is cell-based, human. Conditions: NB4 cells.

In the case of Pertussis toxin, the MIP3α secretion entry in the assay with PC3 cells [1] is “effectively inhibited the secretion of MIP3α”; in the assay with PC3-CXCR4.5 cells [2] (ELISA), “secretion of MIP3α was decreased”; in the assay with PC3-CXCR4.5 cells [2] (PTX in combination with CXCL12) it was “did not demonstrate an inhibitory effect”.
With `Cc1ccc(NC(=O)c2ccc(CN3CCN(C)CC3)cc2)cc1Nc1nccc(-c2cccnc2)n1` [STI571], the “tumor development of K562L cells” value in the assay on K562L cells (40 mg/Kg IP, FIG. 20) is on record as “inhibit tumor development”. Moreover, the “signal intensities over time” value in the assay with K562L cells (40 mg/Kg, FIG. 19) is “significant reduction in signal intensities”.
For `c1cc(CN2CCCNCCNCCCNCC2)ccc1CN1CCCNCCNCCCNCC1` [AMD-3100, reference compound], the proliferation entry in the assay with U-87 is “either stimulated or not affected”; in the assay on SKBR3, “either stimulated or not affected”; in the assay with PC3 cells [4] it was “induced the proliferation of prostate cancer cells”; in the assay with PC3-CXCR4.5 cells [5], “induced the proliferation of prostate cancer cells”; in the assay on 22Rv1, “either stimulated or not affected”. The “proliferation and survival of keratinocytes” value in [3] is given as “not inhibited”. Also, the “effect of pretreatment with AMD-3100 on the effect of 4F-benzoyl-TN14003” value in the assay with HL-60 cells is “abolished the effect of 4F-benzoyl-TN14003”. The “proliferation and survival of CD4+ T cells” value with human CD4+ T cells is listed as “not inhibited”. Moreover, the “CD34+ stem cell numbers” value in assay [6] is given as “did not affect cell numbers”. The “effect of pretreatment with AMD-3100 on the inhibitory effect of 4F-benzoyl-TN14003” value with NB4 cells is listed as “abolished”.
As to “CXCL12: chemokine, CXCR4's only natural ligand”, the proliferation entry in the assay on U-87 was “either stimulated or not affected”; in the assay on SKBR3 it was “either stimulated or not affected”; in the assay on PC3 cells [4], “induced the proliferation of prostate cancer cells”; with PC3-CXCR4.5 cells [5], “induced the proliferation of prostate cancer cells”; in the assay on 22Rv1 it was “either stimulated or not affected”. Also, the “proliferation and survival of keratinocytes” value in assay [3] was “not inhibited”. Further, the “proliferation and survival of CD4+ T cells” value in the assay with human CD4+ T cells is on record as “induced T cell proliferation”. Also, the “CD34+ stem cell numbers” value in assay [6] is “did not affect cell numbers”.
